# From patent publication US20100010037A1, “1H-PYRROLO[2,3-B]PYRIDINE DERIVATIVES USEFUL AS HSP90 INHIBITORS” (VERNALIS (R&D) LTD., priority 2006, published 2010)
# Test system: not listed separately
# Assay: Growth inhibition assay: cytotoxicity by sulforhodamine B (SRB) assay
# Type: cell-based
# Conditions: SRB stain, absorbance at 540 nm; cell line not named
# Description: A growth inhibition assay was also employed for the evaluation of candidate HSP90 inhibitors:
# Assessment of Cytotoxicity by Sulforhodamine B (SRB) Assay: Calculation of 50% Inhibitory Concentration (IC50).
# Day 1 • 1) Determine cell number by haemocytometer. • 2) Using an 8 channel multipipettor, add 160 μl of the cell suspension (3600 cells/well or 2×10^4 cells/ml) to each well of a 96-well microtitre plate. • 3) Incubate overnight at 37° C. in a CO2 incubator. […]
# Day 6 • 8) Tip off medium into sink and immerse plate slowly into 10% ice cold trichloroacetic acid (TCA). […] Leave for 15 mins. • 12) Wash off unbound SRB stain with four washes of 1% acetic acid. • 13) Dry plates in incubator. • 14) Solubilise SRB using 100 μl of 10 mM Tris base and put plates on plate shaker for 5 mins. • 15) Determine absorbance at 540 nm using a plate reader. Calculate mean absorbance for quadruplicate wells and express as a percentage of value for control, untreated wells. • 16) Plot % absorbance values versus log drug concentration and determine the IC50.
row,Compound,IC50 [µM]
1,"COc1cc(-c2cc(Cl)nc3[nH]cc(C#N)c23)c(Cl)cc1Cl [Example 5, 6-Chloro-4-(2,4-dichloro-5-methoxy-phenyl)-1H-pyrrolo[2,3-b]pyridine-3-carbonitrile]",< 50

# Target: T1, human full-length HSP90 (Homo sapiens, UniProt P08238)
# T1 construct: E. coli expressed human full-length HSP90 protein; made in house; host or cells: E. coli
# T1 sequence (P08238 whole entry): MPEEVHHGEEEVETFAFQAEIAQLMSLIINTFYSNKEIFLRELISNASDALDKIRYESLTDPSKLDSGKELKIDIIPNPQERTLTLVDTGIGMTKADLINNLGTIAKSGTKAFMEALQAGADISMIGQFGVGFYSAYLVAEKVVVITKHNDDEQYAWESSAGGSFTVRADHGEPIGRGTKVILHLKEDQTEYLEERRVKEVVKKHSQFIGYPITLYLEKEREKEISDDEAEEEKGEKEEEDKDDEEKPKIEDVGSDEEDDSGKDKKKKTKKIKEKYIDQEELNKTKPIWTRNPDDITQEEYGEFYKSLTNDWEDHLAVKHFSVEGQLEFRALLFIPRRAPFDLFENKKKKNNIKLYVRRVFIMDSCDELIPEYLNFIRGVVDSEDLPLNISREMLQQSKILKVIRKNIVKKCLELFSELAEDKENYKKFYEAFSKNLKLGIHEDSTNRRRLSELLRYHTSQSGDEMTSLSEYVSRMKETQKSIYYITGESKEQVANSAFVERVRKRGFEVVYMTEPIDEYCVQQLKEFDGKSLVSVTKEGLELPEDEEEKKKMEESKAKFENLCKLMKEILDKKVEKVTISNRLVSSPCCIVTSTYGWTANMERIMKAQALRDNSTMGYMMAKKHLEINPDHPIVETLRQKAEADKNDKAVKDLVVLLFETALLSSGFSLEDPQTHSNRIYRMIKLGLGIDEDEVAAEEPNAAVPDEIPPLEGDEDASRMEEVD
# Assay: Fluorescence polarization assay (competitive displacement of fluorescein-labelled probe from HSP90)
# Type: binding
# Conditions: human full-length HSP90 200 nM, probe 80 nM; read-out: FP IC50 (activity in the fluorescence polarization assay)
# Excerpt: Fluorescence Polarization Assay
# Fluorescence polarization {also known as fluorescence anisotropy} measures the rotation of a fluorescing species in solution, where the larger molecule the more polarized the fluorescence emission. When the fluorophore is excited with polarized light, the emitted light is also polarized. The molecular size is proportional to the polarization of the fluorescence emission.
# The fluoroscein-labelled probe—
# binds to HSP90 {full-length human, full-length yeast or N-terminal domain HSP90} and the anisotropy {rotation of the probe:protein complex} is measured.
# Test compound is added to the assay plate, left to equilibrate and the anisotropy measured again. Any change in anisotropy is due to competitive binding of compound to HSP90, thereby releasing probe.
# Chemicals are of the highest purity commercially available and all aqueous solutions are made up in AR water. • 1) Costar 96-well black assay plate #3915 • 2) Assay buffer of (a)100 mM Tris pH7.4; (b) 20 mM KCl; (c) 6 mM MgCl2. Stored at room temperature. • 3) BSA (bovine serum albumen) 10 mg/ml (New England Biolabs # B9001S) • 4) 20 mM probe in 100% DMSO stock concentration. Stored in the dark at RT. Working concentration is 200 nM diluted in AR water and stored at 4° C. Final concentration in assay 80 nM. • 5) E. coli expressed human full-length HSP90 protein, purified >95% (see, e.g., Panaretou et al., 1998) and stored in 50 μL aliquots at −80° C.
# Protocol • 1) Add 100 μl 1× buffer to wells 11A and 12A (=FP BLNK) • 2) Prepare assay mix—all reagents are kept on ice with a lid on the bucket as the probe is light-sensitive.
# • 3) Aliquot 100 μl assay mix to all other wells • 4) Seal plate and leave in dark at room temp for 20 minutes to equilibrate
# Compound Dilution Plate—1×3 dilution series • 1) In a clear 96-well v-bottom plate—{# VWR 007/008/257} add 10 μl 100% DMSO to wells B1 to H11 • 2) To wells A1 to A11 add 17.5 μl 100% DMSO • 3) Add 2.5 μl cpd to A1. This gives 2.5 mM {50×} stock cpd—assuming cpds 20 mM. • 4) Repeat for wells A2 to A10. Control in columns 11 and 12. • 5) Transfer 5 μl from row A to row B—not column 12. Mix well. • 6) Transfer 5 μl from row B to row C. […] In column 11 {provides standard curve} only add compound B11-H11. Add 2 μl of 100 mM standard cpd to wells B12-H12 {is positive control} • 13) The Z′ factor is calculated from zero controls and positive wells. It typically gives a value of 0.7-0.9.
row,Compound,IC50 [µM]
1,"N#Cc1c[nH]c2nc(Cl)cc(-c3ccc(Cl)cc3Cl)c12 [Example 3, 6-Chloro-4-(2,4-dichloro-phenyl)-1H-pyrrolo[2,3-b]pyridine-3-carbonitrile]",< 1
2,"CCN(CC)CCOc1cccc(-c2ccnc3[nH]cc(C#N)c23)c1 [Example 13, 4-[3-(2-Diethylamino-ethoxy)-phenyl]-1H-pyrrolo[2,3-b]pyridine-3-carbonitrile]",1 to 10
3,Cc1ccc(-c2ccnc3[nH]cc(Br)c23)c(C)c1 [Example 6],1 to 10
4,"CCN(CC)CCOc1cc(-c2ccc(Cl)cc2Cl)c2c(C#N)c[nH]c2n1 [Example 10, 4-(2,4-Dichloro-phenyl)-6-(2-diethylamino-ethoxy)-1H-pyrrolo[2,3-b]pyridine-3-carbonitrile]",1 to 10
5,"N#Cc1c[nH]c2nc(OCCCN3CCCCC3)cc(-c3ccc(Cl)cc3Cl)c12 [Example 11, 4-(2,4-Dichloro-phenyl)-6-(3-piperidin-1-yl-propoxy)-1H-pyrrolo[2,3-b]pyridine-3-carbonitrile]",1 to 10
6,"Cc1ccc(-c2ccnc3[nH]cc(C#N)c23)c(C)c1 [Example 1, 4-(2,4-Dimethyl-phenyl)-1H-pyrrolo[2,3-b]pyridine-3-carbonitrile]",< 1
7,"N#Cc1c[nH]c2nc(Cl)cc(-c3cccc(O)c3)c12 [Example 14, 6-Chloro-4-(3-hydroxy-phenyl)-1H-pyrrolo[2,3-b]pyridine-3-carbonitrile]",< 1
8,"N#Cc1c[nH]c2nccc(-c3cccc(O)c3)c12 [Example 12, 4-(3-Hydroxy-phenyl)-1H-pyrrolo[2,3-b]pyridine-3-carbonitrile]",1 to 10
9,"COc1cc(-c2ccccc2)c2c(C#N)c[nH]c2n1 [Example 15, 6-methoxy-4-(-phenyl)-1H-pyrrolo[2,3-b]pyridine-3-carbonitrile]",< 1
10,"CCN(CC)CCOc1cc(-c2ccccc2)c2c(C#N)c[nH]c2n1 [Example 9, 6-(2-Diethylamino-ethoxy)-4-phenyl-1H-pyrrolo[2,3-b]pyridine-3-carbonitrile]",> 10
11,"COc1cc(-c2cc(Cl)nc3[nH]cc(C#N)c23)c(Cl)cc1Cl [Example 5, 6-Chloro-4-(2,4-dichloro-5-methoxy-phenyl)-1H-pyrrolo[2,3-b]pyridine-3-carbonitrile]",< 1
12,"COc1cc(-c2ccnc3[nH]cc(C#N)c23)c(Cl)cc1Cl [Example 4, 4-(2,4-Dichloro-5-methoxy-phenyl)-1H-pyrrolo[2,3-b]pyridine-3-carbonitrile]",< 1
13,"N#Cc1c[nH]c2nccc(-c3ccc(Cl)cc3Cl)c12 [Example 2, 4-(2,4-Dichloro-phenyl)-1H-pyrrolo[2,3-b]pyridine-3-carbonitrile]",< 1
14,"Cc1ccc(-c2ccnc3[nH]cc(C=O)c23)c(C)c1 [Example 7, 4-(2,4-Dimethyl-phenyl)-1H-pyrrolo[2,3-b]pyridine-3-carbaldehyde]",< 1
